Data published in patent US20220081481A1, “USE OF AGENTS CAPABLE OF INDUCING LC3-ASSOCIATED PHAGOCYTOSIS FOR TREATING SUSTAINED INFLAMMATION IN PATIENTS SUFFERING FROM CHRONIC LIVER DISEASE” (INSERM (INSTITUT NATIONAL DE LA SANTÉ ET DE LA RECHERCHE …, priority 2019, published 2022).
Ends that are not written are not given here.

Columns and labels:
[1] = tested on: blood monocytes from patients with cirrhosis; test: LC3+ pHrodo+ phagosome (LAPosome) number in blood monocytes from patients with cirrhosis; assay type: cell-based, human; settings: 10 mM 3-MA, 30 μM N8 peptide, data not shown
Experimental: Human blood monocytes. Human monocytes were isolated from freshly isolated PBMC, using EasySep human monocyte enrichment kit (STEMCELL Technologies, 19058), and CD14+CD16+ monocytes were isolated by immunomagnetic negative selection according to the manufacturer's instructions. Cell treatment. Human monocytes, THP1-XBlueTM-CD14 (Invivogen, Catalog #[…] THP1-FcγRIIA+-CD14+(kindly provided by Novimmune) monocytes were used. When indicated cells were exposed to either 30 μM chloroquine diphosphate (Sigma, C6628), 10 mM 3-Methyladenine (3-MA, Sigma, M9281-100 mg), 10 mM Diphenyleneiodonium chloride (DPI, Sigma, D2926-10 mg), or 10 mg/ml IVIg (Privigen, 100 mg/ml) for 4 hrs at 37° C., as indicated. […] For quantification, images were acquired by confocal microscopy (Confocal Zeiss LSM 780) equipped with a 63× oil immersion objective. For each condition, 10 to 15 fields were randomly selected, and the number of LC3+ signal localized around pHrodo+ phagosomes (LC3+ pHrodo+) was quantified in at least 40 to 60 cells. Unless otherwise indicated, results are expressed as number of LC3+ phagosomes/individual normalized to 100 cells. […]

[2] = tested on: blood monocytes from healthy donors and cirrhotic patients; test: RT-PCR analysis of inflammatory gene expression in blood monocytes; assay type: cell-based, human; settings: cirrhotic monocytes vs control-treated cells from healthy donors; 10 mM 3-MA, 10 μM DPI, 30 μM N8; FIG. 1C
Experimental: FIG. 1: Inhibition of LAP components enhances the inflammatory signature in blood monocytes from patients with cirrhosis. (A). Inverse correlation between circulating C-Reactive Protein (CRP) levels and the number of LC3+ pHrodo+ phagosomes containing E. Coli bioparticles in blood monocytes from patients with cirrhosis (n=14). *p=0.005, r=-0.7 for LC3+ pHrodo+ phagosomes number vs CRP. (B). PBMC were incubated for 4 hrs at 37° C. with either vehicle, 10 mM 3-MA, 10 μM DPI, 30 μM N8 or control mutant […] peptides Percentage of IL8+ production in CD14+ cells from patients (n=8) and healthy donors (n=6) PBMC. (C). RT-PCR analysis of inflammatory gene expression in blood monocytes from healthy donors (n=6-8) and cirrhotic patients (n=6-11). Results are expressed as fold over respective control. *p<0.05, **p<0.001 for healthy vs cirrhotic. Statistical analysis was performed using Spearman correlation test (A), Mann-Whitney (b, for comparison between healthy and cirrhosis) and Wilcoxon matched-pairs signed rank test (B, for treatment). Human blood monocytes. Human monocytes were isolated from freshly isolated PBMC, using EasySep human monocyte enrichment kit (STEMCELL Technologies, 19058), and CD14+CD16+ monocytes were isolated by immunomagnetic negative selection according to the manufacturer's instructions. Cell treatment. […]

Molecule | LC3+ phagosome number [1] | gene expression of cytokines and chemokines [2]
Cn1cnc(N)c2ncnc1-2 [3-MA, 3-Methyladenine] | significant reduction | significantly higher
N8 peptide: Tat-conjugated peptide of eight N-terminal amino acids (3-10) of p22phox that blocks the Rubicon-p22phox interaction (QIEWAMWA; also: Tat cell-penetrating peptide conjugate, attachment not given here; UniProt P13498 3-10, looked up, fragment) | significant reduction | significantly higher
